Several values for one entry are separate records, joined by “and”; a condition that tells them apart may be missing. Identical values can stand only once. Like-named read-outs stand apart in the source and are kept apart here.
Experiment: Plasma and urine pharmacokinetics (HPLC-UV) in patients after 60-min IV infusion
Type: in vivo, human
Details: for half-life / Cmax / AUC / MRT: human, plasma, intravenous; for Cmax: observed value
Excerpt: Fostriecin (CI-920) is a topoisomerase (topo) II catalytic activity inhibitor (Boritzki et al, 1988) (Figure 1). This novel class of topo II-targeting drugs is considered of potential value for treatment of patients with tumours resistant to classic topo II poisons, including anthracyclines and podophyllotoxins (Cummings and Smyth, 1993). The nuclear enzyme topo II is essential for the regulation of DNA conformation (reviewed in Osheroff et al, 1991). Central in its action is the formation of a complex with DNA. Stabilization of this complex by topo II poisons induces DNA damage and cell death (Froelich-Ammon and Osheroff, 1995). Decreased complex formation due to decreased topo II levels is considered to be an important mechanism of tumour-resistance to topo II poisons (Beck and Danks, 1991). The topo II catalytic inhibitor fostriecin is expected to have increased activity against tumour cells with low topo II levels and this was confirmed in in vitro studies (De Jong et al, 1991). […] Because of increased toxi- city of fostriecin in dogs compared to mice, a dose below one-third of the one-tenth mouse equivalent LD10, 2 mg m-2 day-1, was chosen as starting dose in humans (Clinical Brochure Fostriecin, 1991). […] We also performed an analysis of the human pharmacokinetics of fostriecin and ex vivo experiments to investigate if the plasma drug concentrations achieved were sufficient to inhibit a tenipo- side-resistant tumour cell line. The maximum tolerated dose (MTD) of fostriecin could not be established because drug supply was stopped prematurely. However, results of this study may provide a basis for continued clinical development of this agent. PATIENTS AND METHODS Patient selection, drug administration and evaluation Patient eligibility criteria were: histologically confirmed diagnosis of a solid tumour, no longer amenable to established forms of treatment; age 18-75 years; Eastern Cooperative Oncology Group (ECOG) performance status 2; life expectancy 12 weeks; no Phase I and pharmacokinetic study of the topoisomerase II catalytic inhibitor fostriecin RS de Jong1, NH Mulder1, DRA Uges2, DTh Sleijfer1, FJP Hoppener4, HJM Groen3, PHB Willemse1, WTA van der Graaf1 and EGE de Vries1 Departments of 1Medical Oncology, 2Pharmacy and Toxicology, and 3Pulmonary Diseases, University Hospital Groningen, The Netherlands; 4EORTC New Drug Development Office, Amsterdam, The Netherlands Summary We conducted a phase I and pharmacokinetic study of the topoisomerase II catalytic inhibitor fostriecin. Fostriecin was administered intravenously over 60 min on days 1-5 at 4-week intervals. Dose was escalated from 2 mg m-2 day-1 to 20 mg m-2 day-1 in 20 patients. Drug pharmacokinetics was analysed with high performance liquid chromatography with UV-detection. Plasma collected during drug administration was tested in vitro for growth inhibition of a teniposide-resistant small-cell lung cancer (SCLC) cell line. The predominant toxicities were elevated liver transaminases (maximum common toxicity criteria (CTC) grade 4) and serum creatinine (maximum CTC grade 2). […] Duration of elevated alanine-amino transferase (ALT) was dose-limiting in one patient at 20 mg m-2. Other frequent toxicities were grade 1-2 nausea/vomiting, fever and mild fatigue. […] A metabolite, most probably dephosphorylated fostriecin, was detected in plasma and urine. […] However, further escalation seems possible and is warranted to achieve potentially effective drug levels. Fostriecin has a short plasma half-life and longer duration of infusion should be considered. […]

[1] = patient no. 1, 2 mg m-2, day 1 course 1, one-compartment model
[2] = patient no. 3, 2 mg m-2, day 1 course 1, one-compartment model
[3] = patient no. 4, 2 mg m-2, day 1 course 1, one-compartment model
[4] = patient no. 5, 4 mg m-2, day 1 course 1, one-compartment model
[5] = patient no. 6, 4 mg m-2, day 1 course 1, one-compartment model
[6] = patient no. 7, 4 mg m-2, day 1 course 1, two-compartment model
[7] = patient no. 11, 6.6 mg m-2, day 1 course 1, two-compartment model
[8] = patient no. 12, 6.6 mg m-2, day 1 course 1, two-compartment model
[9] = patient no. 13, 10 mg m-2, day 1 course 1, two-compartment model
[10] = patient no. 15, 10 mg m-2, day 1 course 1, two-compartment model
[11] = patient no. 16, 12.2 mg m-2, day 1 course 1, two-compartment model
[12] = patient no. 18, 12.2 mg m-2, day 1 course 1, two-compartment model
[13] = patient no. 19, 20 mg m-2, sampling on day 1 of course 2, two-compartment model
[14] = patient no. 20, 20 mg m-2, day 1 course 1, two-compartment model

In the case of `C[C@@](O)(/C=C/[C@H]1CC=CC(=O)O1)[C@@H](C[C@@H](O)\C=C/C=C\C=C\CO)OP(=O)(O)O` [fostriecin], the half-life (12.2 mg, patient no. 16, 12.2 mg m-2, day 1 course 1, two-compartment model, read-out: t1/2 (terminal) (converted)) is reported as 70.2 min, the Cmax (12.2 mg, patient no. 18, 12.2 mg m-2, day 1 course 1) is reported as 2790 ng/mL and the AUC (12.2 mg, patient no. 18, 12.2 mg m-2, day 1 course 1, two-compartment model) is reported as 5320 ng·h/mL. The MRT (12.2 mg, patient no. 18, 12.2 mg m-2, day 1 course 1, two-compartment model, read-out: MRT) was 3.61 h, the half-life (12.2 mg, patient no. 18, 12.2 mg m-2, day 1 course 1, two-compartment model, read-out: t1/2 (initial) (converted)) was 27.6 min and the half-life (12.2 mg, patient no. 18, 12.2 mg m-2, day 1 course 1, two-compartment model, read-out: t1/2 (terminal) (converted)) was 306 min. It also gave a Cmax (20 mg, patient no. 19, 20 mg m-2, sampling on day 1 of course 2) of 3850 ng/mL, an AUC (20 mg, patient no. 19, 20 mg m-2, sampling on day 1 of course 2, two-compartment model) of 4450 ng·h/mL and an MRT (20 mg, patient no. 19, 20 mg m-2, sampling on day 1 of course 2, two-compartment model, read-out: MRT) of 0.38 h. For the same compound, the half-life (20 mg, patient no. 19, 20 mg m-2, sampling on day 1 of course 2, two-compartment model, read-out: t1/2 (initial) (converted)) was 1.8 min, the half-life (20 mg, patient no. 19, 20 mg m-2, sampling on day 1 of course 2, two-compartment model, read-out: t1/2 (terminal) (converted)) was 32.4 min and the Cmax (20 mg, patient no. 20, 20 mg m-2, day 1 course 1) was 6350 ng/mL. The AUC (20 mg, patient no. 20, 20 mg m-2, day 1 course 1, two-compartment model) was 9960 ng·h/mL, the MRT (20 mg, patient no. 20, 20 mg m-2, day 1 course 1, two-compartment model, read-out: MRT) was 0.83 h and the half-life (20 mg, patient no. 20, 20 mg m-2, day 1 course 1, two-compartment model, read-out: t1/2 (initial) (converted)) was 0.6 min. It also gave a half-life (20 mg, patient no. 20, 20 mg m-2, day 1 course 1, two-compartment model, read-out: t1/2 (terminal) (converted)) of 45.6 min, a half-life (two-compartment model, 95% CI 0-0.76 h, read-out: mean plasma half-life (initial) (converted)) of 21.6 min and an MRT (two-compartment model, 95% CI 0.41-1.97 h, read-out: mean residence time (MRT)) of 1.19 h. The half-life (two-compartment model, 95% CI 0.41-2.61 h, read-out: mean plasma half-life (terminal) (converted)) was 90.6 min, the “renal excretion as share of drug elimination” value (mean, patient nos 12-20, 95% CI 10-17.6%) was 14.6% and 15% and the Cl [1] was 5.14 l h-1 m-2. The Vd [1] was 4.44 l m-2, the Cl [2] was 2.40 l h-1 m-2 and the Vd [2] was 1.86 l m-2. It also gave a Cl [3] of 4.11 l h-1 m-2, a Vd [3] of 2.10 l m-2 and a Cl [4] of 2.81 l h-1 m-2. The Vd [4] was 2.03 l m-2, the Cl [5] was 3.05 l h-1 m-2 and the Vd [5] was 2.03 l m-2. It also gave a Cl [6] of 2.31 l h-1 m-2, a Vd [6] of 6.76 l m-2 and a Cl [7] of 4.06 l h-1 m-2. For the same compound, the Vd [7] was 2.75 l m-2, the Cl [8] was 2.63 l h-1 m-2 and the Vd [8] was 4.64 l m-2. It also gave a Cl [9] of 2.97 l h-1 m-2, a Vd [9] of 3.98 l m-2 and a Cl [10] of 2.66 l h-1 m-2. The Vd [10] was 5.34 l m-2, the Cl [11] was 2.84 l h-1 m-2 and the Vd [11] was 4.80 l m-2. It also gave a Cl [12] of 2.32 l h-1 m-2, a Vd [12] of 17.09 l m-2 and a Cl [13] of 4.52 l h-1 m-2. The Vd [13] was 3.39 l m-2, the Cl [14] was 1.83 l h-1 m-2 and the Vd [14] was 2.01 l m-2. For the same compound, the “mean volume of distribution (Vd)” value (two-compartment model, 95% CI 2.16-9.11) was 5.64 l m-2, the “mean Cl (apparent total body clearance)” value (two-compartment model, 95% CI 2.24-3.57) was 2.90 l h-1 m-2 and the “mean Cl (apparent total body clearance)” value (unit conversion of 2.90 l h-1 m-2) was 48.3 ml min-1 m-2.

Reference: article PMC2362650, “Phase I and pharmacokinetic study of the topoisomerase II catalytic inhibitor fostriecin” (British Journal of Cancer, 1999)
